Results: patent US20080262235A1, “Method and Apparatus for Producing Oxidized Compound” (priority 2005, published 2008)
Values joined by “and” are separate entries in the source; they are usually repeats but may differ in a detail not shown here. Equal entries are not always repeated.

What was measured:
Type in all cases: physicochemical
[1] = Test 1: storage stability of lansoprazole crystals, content by HPLC; settings: for Residual ratio after stored for 6 months at 40° C.: [(Content after stored for 6 months at 40° C.)/(Initial Content)]×100; for Initial Content / Content after stored for 6 months at 40° C.: content of lansoprazole in crystals, wt %, HPLC; for Initial Content: before storage
Source text: The stability of the crystals of the solvate of lansoprazole (hereinafter, referred to as lansoprazole (1)) obtained by vacuum drying the wet crystals of the solvate of ethanol-water of lansoprazole obtained according to the method in EXAMPLE 2, was compared to the stability of the white crystals of lansoprazole (hereinafter, referred to as lansoprazole (2)) obtained according to the method in EXAMPLE 3.
Herein, the “content” in Table 1 refers to the content of lansoprazole in lansoprazole crystals expressed in wt %, and was measured by HPLC technique (analyzed under each of following conditions: for (1), Column: NOVA PAK, C18, 3.9×150 mm, Temperature: constant temperature of around 25° C., Mobile phase: solution prepared by adjusting the pH of methanol:water:triethylamine (weight ratio=60:40:1) with phosphoric acid to 7.0, Flow rate: 0.5 ml/min, Detector: UV 285 nm, and for (2), Column: CAPCELL PAC, C18, SG120, 4.6×250 mm, Temperature: constant temperature of around 25° C., Mobile phase: solution prepared by adjusting the pH of acetonitrile:water:triethylamine (weight ratio=40:60:1) with phosphoric acid to 7.0, Flow rate: 1 ml/min, Detector: UV 285 nm). The “residual ratio after stored for 6 months at 40° C.” was calculated by [(Content after stored for 6 months at 40° C.)/(Initial Content)]×100 (%).

[2] = Test 2: crystal stability by coloration, absorbance (390 nm) of crystals dissolved in dimethylformamide; settings: for Absorbance of solution of crystals just after preparation / Absorbance of solution of crystals after stored at 60° C. for 15 days: 1 g crystals in 10 mL dimethylformamide; for Change in Absorbance: after 60° C. for 15 days minus just after preparation
Description: In the method according to EXAMPLE 3, the amount of ethanol added to the mixed solution in which the wet crystals of the solvate of ethanol-water of lansoprazole are suspended was changed, and the stability of thus obtained crystals was compared.
The crystals obtained from each of mixed solution systems shown in Table 2 below were each dissolved in dimethylformamide just after the preparation and after stored at 60° C. for 15 days, and the absorbance (390 nm) of thus obtained solutions of crystals was measured. The degree of coloration was compared as an indicator of the crystal stability.
The absorbance of the solution prepared by dissolving 1 g of crystals into 10 mL of dimethylformamide was measured with the use of a spectral photometer (Jasco No. 0214332).
In addition, the pH of each mixed solution in which crystals are suspended was adjusted to about 9 with an aqueous ammonia solution.

[3] = Stability of crystals obtained in Example 2 (statement only)

Residual ratio after stored for 6 months at 40° C. [1]	Initial Content [1]	Content after stored for 6 months at 40° C. ([1]; 6 months at 40° C.)	Absorbance of solution of crystals just after preparation [2]	Absorbance of solution of crystals after stored at 60° C. for 15 days [2]	Change in Absorbance [2]	Compound	also measured
~100%	99.7% and 99.8%	99.6% and 99.8%				Cc1c(OCC(F)(F)F)ccnc1C[S+]([O-])c1nc2ccccc2[nH]1 (racemic) [lansoprazole (2), (+/−)-2-(((3-methyl-4-(2,2,2-trifluoroethoxy)-2-pyridyl)methyl)sulfinyl)benzimidazole]	stability of crystal compared to lansoprazole (1) ([1]; 6 months at 40° C.): more excellent stability; Residual ratio after stored for 6 months at 40° C. ([1]; listed as (2)): 99.9% and 100.0%
91.3% and 84.7% and 86.8%	99.2% and 99.3% and 99.1%	90.6% and 84.1% and 86.0%				Cc1c(OCC(F)(F)F)ccnc1C[S+]([O-])c1nc2ccccc2[nH]1 (racemic) [lansoprazole (1), (+/−)-2-(((3-methyl-4-(2,2,2-trifluoroethoxy)-2-pyridyl)methyl)sulfinyl)benzimidazole]	
			0.056	0.964	0.908	Cc1c(OCC(F)(F)F)ccnc1C[S+]([O-])c1nc2ccccc2[nH]1 (racemic) [About 40:1, (+/−)-2-(((3-methyl-4-(2,2,2-trifluoroethoxy)-2-pyridyl)methyl)sulfinyl)benzimidazole]	
			0.046	1.703	1.657	Cc1c(OCC(F)(F)F)ccnc1C[S+]([O-])c1nc2ccccc2[nH]1 (racemic) [Ethanol non-added, (+/−)-2-(((3-methyl-4-(2,2,2-trifluoroethoxy)-2-pyridyl)methyl)sulfinyl)benzimidazole]	
			0.054	1.135	1.081	Cc1c(OCC(F)(F)F)ccnc1C[S+]([O-])c1nc2ccccc2[nH]1 (racemic) [About 160:1, (+/−)-2-(((3-methyl-4-(2,2,2-trifluoroethoxy)-2-pyridyl)methyl)sulfinyl)benzimidazole]	
						Cc1c(OCC(F)(F)F)ccnc1C[S+]([O-])c1nc2ccccc2[nH]1 (racemic) [lansoprazole I type crystal, (+/−)-2-(((3-methyl-4-(2,2,2-trifluoroethoxy)-2-pyridyl)methyl)sulfinyl)benzimidazole]	stability of obtained crystals [3]: stable
